Test results reported in ChEMBL document CHEMBL1201862, “PubChem BioAssay data set” (2004).
Several values for one entry are separate records, joined by “and”; a condition that tells them apart may be missing. Identical values can stand only once. Activity calls are given as the source filed them.

What was measured:
[1] = Luminescence Cell-Based Dose Confirmation HTS to Identify Activators of 5'UTR Stem-Loop Driven Alpha-Synuclein mRNA Translation in H4 Neuroglioblastoma Cells. [Related pubchem assays: 1829 (Project Summary), 1814 (Primary HTS)]; type: functional
[2] = Luminescence Cell-Based Dose Response HTS to Identify Activators of Luciferase Translation or Activity in H4 […] Cells. [Related pubchem assays: 1829 (Project Summary), 1814 (Primary HTS)]; type: functional
H4 = test: Luminescence Cell-Based Dose Response HTS to Identify Activators of 5'UTR Stem-Loop Driven Prion Protein mRNA Translation in H4 Neuroglioblastoma Cells. [Related pubchem assays: 1829 (Project Summary), 1814 (Primary HTS)]; type: functional; settings: Homo sapiens
[3] = THP-1 cell cytotoxicity, dose response, cytotoxicity control for non-replicating M. tuberculosis project (AID 489025); type: functional
[4] = Luminescence Cell-Based Dose Retest to Confirm Inhibitors of Cancer Stem Cells. [Related pubchem assays (depositor defined):AID2717, AID2721]; type: functional, Homo sapiens; settings: Homo sapiens
[5] = Vero E6 cell cytotoxicity, dose response, cytotoxicity control for non-replicating M. tuberculosis project, secondary assay (AID 492998); type: functional, VeroE6; settings: Vero C1008
cells = type: functional
[6] = molecular target: Nuclear receptor subfamily 5 group A member 2 (Homo sapiens, UniProt O00482); type: functional, cell-based;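 also: HEK293T cells transfected with LRH-1 and a StAR promoter luciferase reporter; potency for inhibitors that lower LRH-1 driven reporter light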
Nuclear receptor subfamily 5 group A member 2, sequence (O00482 whole entry): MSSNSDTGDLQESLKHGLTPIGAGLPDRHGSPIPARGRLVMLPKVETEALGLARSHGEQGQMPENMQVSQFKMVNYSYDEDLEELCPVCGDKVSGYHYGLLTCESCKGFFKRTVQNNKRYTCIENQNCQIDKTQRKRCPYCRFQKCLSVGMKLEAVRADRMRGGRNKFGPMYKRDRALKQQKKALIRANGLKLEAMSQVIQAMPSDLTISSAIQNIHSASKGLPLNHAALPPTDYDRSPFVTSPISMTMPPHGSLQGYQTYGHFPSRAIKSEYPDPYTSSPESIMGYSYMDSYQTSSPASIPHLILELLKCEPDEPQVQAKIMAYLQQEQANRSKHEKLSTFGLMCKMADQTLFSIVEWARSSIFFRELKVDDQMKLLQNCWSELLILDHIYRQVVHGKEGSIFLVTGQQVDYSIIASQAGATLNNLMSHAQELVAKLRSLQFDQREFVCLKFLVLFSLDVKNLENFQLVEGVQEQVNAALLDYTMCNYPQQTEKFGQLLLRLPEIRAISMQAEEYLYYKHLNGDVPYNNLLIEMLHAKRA

Steroidogenic factor 1 = Steroidogenic factor 1 (Homo sapiens, UniProt Q13285); test: Counterscreen for inverse agonists of the liver receptor homolog-1 (LRH-1; NR5A2): Luminescence-based cell-based high throughput dose response assay to identify inverse agonists of the Steroidogenic Factor 1 Nuclear Receptor (SF1; NR5A1).; type: functional
Steroidogenic factor 1, sequence (Q13285 whole entry): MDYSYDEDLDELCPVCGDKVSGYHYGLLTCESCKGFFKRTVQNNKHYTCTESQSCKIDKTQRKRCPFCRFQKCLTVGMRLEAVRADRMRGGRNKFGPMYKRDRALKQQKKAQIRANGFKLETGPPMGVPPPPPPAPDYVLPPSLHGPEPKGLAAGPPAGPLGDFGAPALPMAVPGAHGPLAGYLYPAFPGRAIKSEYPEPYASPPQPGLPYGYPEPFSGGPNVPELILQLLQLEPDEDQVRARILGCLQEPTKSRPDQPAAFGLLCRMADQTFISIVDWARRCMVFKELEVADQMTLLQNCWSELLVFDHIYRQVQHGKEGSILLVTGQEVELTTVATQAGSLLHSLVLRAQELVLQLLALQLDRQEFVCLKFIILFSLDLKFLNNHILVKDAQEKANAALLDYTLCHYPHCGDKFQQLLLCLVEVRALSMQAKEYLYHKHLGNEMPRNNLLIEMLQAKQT

[7] = nonselective StAR promoter luciferase inhibitors – cell-based, luminescence, luciferase reporter, counter-screen for LRH-1 inverse agonist project, dose response (AID 651969); type: functional
[8] = molecular target: T1, High affinity choline transporter 1 (Homo sapiens, UniProt Q9GZV3); test: human choline transporter blockers, potency – cell-based, 5-point CRC, membrane potential dye, dose response (AID 504840); type: functional
T1 sequence (Q9GZV3 whole entry): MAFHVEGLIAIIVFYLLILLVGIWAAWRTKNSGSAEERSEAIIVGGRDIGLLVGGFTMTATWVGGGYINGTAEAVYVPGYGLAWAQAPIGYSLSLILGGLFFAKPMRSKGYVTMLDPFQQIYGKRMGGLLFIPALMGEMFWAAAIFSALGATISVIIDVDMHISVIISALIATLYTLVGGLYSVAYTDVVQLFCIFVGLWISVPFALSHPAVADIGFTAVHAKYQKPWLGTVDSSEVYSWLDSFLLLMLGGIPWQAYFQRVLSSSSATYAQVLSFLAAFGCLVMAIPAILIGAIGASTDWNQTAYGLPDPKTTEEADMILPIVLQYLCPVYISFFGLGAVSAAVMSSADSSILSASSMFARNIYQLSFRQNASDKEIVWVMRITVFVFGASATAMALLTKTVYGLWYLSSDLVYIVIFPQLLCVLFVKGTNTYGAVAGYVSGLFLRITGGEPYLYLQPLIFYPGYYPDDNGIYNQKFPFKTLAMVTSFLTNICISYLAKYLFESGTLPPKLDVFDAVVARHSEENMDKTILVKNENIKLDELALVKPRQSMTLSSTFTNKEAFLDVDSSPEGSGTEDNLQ

[9] = molecular target: T1, High affinity choline transporter 1; test: human choline transporter blockers, potency – cell-based, 10-point CRC, membrane potential dye, dose response (AID 588401); type: functional;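 also: membrane potential dye fluorescence of choline-evoked depolarization via CHT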
[10] = molecular target: T2, Corticotropin-releasing factor receptor 2/Corticotropin-releasing factor-binding protein (Homo sapiens, UniProt P24387+Q13324); test: Dose Response confirmation of uHTS hits for small molecule antagonists of the CRF-binding protein and CRF-R2 receptor complex.; type: functional; settings: read-out: IC50_Mean
T2 sequence (Q13324 whole entry): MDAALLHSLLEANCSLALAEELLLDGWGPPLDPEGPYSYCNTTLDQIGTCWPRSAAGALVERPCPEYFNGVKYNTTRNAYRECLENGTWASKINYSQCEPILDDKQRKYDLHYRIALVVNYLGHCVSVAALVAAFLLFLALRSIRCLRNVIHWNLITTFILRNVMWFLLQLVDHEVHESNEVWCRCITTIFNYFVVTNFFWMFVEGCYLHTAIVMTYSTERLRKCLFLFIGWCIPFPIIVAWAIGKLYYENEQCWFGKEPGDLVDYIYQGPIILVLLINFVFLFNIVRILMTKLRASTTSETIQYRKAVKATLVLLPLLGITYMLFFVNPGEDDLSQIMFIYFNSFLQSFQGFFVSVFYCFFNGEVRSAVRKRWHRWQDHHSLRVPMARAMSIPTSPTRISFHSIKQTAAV
T2 sequence (P24387 whole entry): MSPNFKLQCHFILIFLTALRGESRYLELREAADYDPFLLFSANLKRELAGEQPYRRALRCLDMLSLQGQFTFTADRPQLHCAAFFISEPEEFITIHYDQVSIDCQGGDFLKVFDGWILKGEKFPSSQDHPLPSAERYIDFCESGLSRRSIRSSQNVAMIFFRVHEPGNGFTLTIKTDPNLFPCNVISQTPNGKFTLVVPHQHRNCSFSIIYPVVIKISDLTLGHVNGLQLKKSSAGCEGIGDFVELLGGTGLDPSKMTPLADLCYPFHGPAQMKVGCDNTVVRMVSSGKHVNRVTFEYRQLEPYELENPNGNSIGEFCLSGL

[11] = molecular target: T2, Corticotropin-releasing factor receptor 2/Corticotropin-releasing factor-binding protein; test: activators of CRF receptor 2 with binding protein – uHTS hits, confirmation (AID 602473); type: functional; settings: read-out: EC50_Mean
[12] = blockers of CRF-binding protein–CRF-R2 complex – cell-based, uHTS hits, 384-well, dose response (AID 651639); type: functional, Homo sapiens; settings: read-out: IC50_Mean
BJ [13] = test: BJ-TERT fibroblast viability loss – cell-based, RAS-independent, luminescence, dose response (AID 1933); type: functional; settings: Homo sapiens
BJ [14] = test: cells; type: functional, cell-based; settings: Homo sapiens
BJ [15] = test: BJ-TERT-LT-ST fibroblast viability loss – cell-based, RAS-independent, luminescence, dose response (AID 1935); type: functional; settings: Homo sapiens;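 also: BJ fibroblasts immortalized with TERT plus LT and ST oncogenes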
[16] = DRD fibroblast viability loss – cell-based, non-viral oncogenic, luminescence, dose response (AID 1934); type: functional; settings: Homo sapiens
BJ [17] = test: growth inhibition of engineered Ras-driven BJ cells – cell-based, alamar blue fluorescence, cherrypicked samples, dose response (AID 2631); type: functional; settings: Homo sapiens;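 also: confirmatory dose-response assay in RAS-dependent BJ fibroblasts engineered with TERT, LT and ST, with cytotoxicity read by fluorescence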
[18] = molecular target: T1, High affinity choline transporter 1; test: human choline transporter potentiators, potency – cell-based, 10-point CRC, membrane potential dye, dose response (AID 602376); type: functional
[19] = Fluorescence-based cell-based high throughput dose response assay for inhibitors of the interaction of nucleotide-binding oligomerization domain containing 2 (NOD2) and the receptor-interacting serine-threonine kinase 2 (RIPK2).; type: functional; settings: Homo sapiens
[20] = molecular target: Luciferin 4-monooxygenase (Photinus pyralis, UniProt P08659); test: inhibition of purified Photinus pyralis luciferase – biochemical, luminescence, dose response (AID 1891)
Luciferin 4-monooxygenase, sequence (P08659 whole entry): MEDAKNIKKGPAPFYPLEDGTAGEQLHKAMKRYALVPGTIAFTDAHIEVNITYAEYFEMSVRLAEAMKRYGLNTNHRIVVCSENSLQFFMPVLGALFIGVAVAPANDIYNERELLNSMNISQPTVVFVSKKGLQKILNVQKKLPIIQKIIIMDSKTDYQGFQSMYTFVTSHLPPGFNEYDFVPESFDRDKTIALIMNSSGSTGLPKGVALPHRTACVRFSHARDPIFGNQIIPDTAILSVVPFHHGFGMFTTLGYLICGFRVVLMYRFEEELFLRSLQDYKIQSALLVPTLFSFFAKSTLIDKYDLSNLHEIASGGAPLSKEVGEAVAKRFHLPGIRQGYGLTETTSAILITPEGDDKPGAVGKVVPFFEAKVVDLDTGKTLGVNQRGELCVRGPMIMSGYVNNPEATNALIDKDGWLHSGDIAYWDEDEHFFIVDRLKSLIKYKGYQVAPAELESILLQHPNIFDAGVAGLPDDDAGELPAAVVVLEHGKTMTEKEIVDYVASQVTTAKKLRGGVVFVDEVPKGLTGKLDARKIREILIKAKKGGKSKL

[21] = Luminescence Cell-Based Dose Confirmation HTS to Identify Inhibitors of Platelet Dense Granule Release. [Related pubchem assays: 1663 (Primary HTS), 1678 (Summary of Project)]; type: functional
[22] = molecular target: Photoreceptor-specific nuclear receptor (Homo sapiens, UniProt Q9Y5X4); type: functional, cell-based;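 also: CHO-S cells with Gal4-NCOR and VP16-NR2E3 two-hybrid luciferase reporter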
Photoreceptor-specific nuclear receptor, sequence (Q9Y5X4 whole entry, the tested form may be a part): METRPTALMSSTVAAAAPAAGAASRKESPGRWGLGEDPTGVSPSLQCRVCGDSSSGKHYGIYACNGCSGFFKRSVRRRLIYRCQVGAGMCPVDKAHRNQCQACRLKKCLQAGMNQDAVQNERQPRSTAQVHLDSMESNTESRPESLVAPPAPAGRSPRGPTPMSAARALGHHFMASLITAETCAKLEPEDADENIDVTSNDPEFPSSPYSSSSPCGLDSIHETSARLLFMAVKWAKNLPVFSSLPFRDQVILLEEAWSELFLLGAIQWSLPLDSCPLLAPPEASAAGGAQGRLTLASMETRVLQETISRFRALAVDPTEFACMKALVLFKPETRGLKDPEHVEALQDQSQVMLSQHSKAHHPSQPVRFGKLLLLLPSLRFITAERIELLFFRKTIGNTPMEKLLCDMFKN

[23] = molecular target: T3, Low molecular weight phosphotyrosine protein phosphatase (Homo sapiens, UniProt P24666); type: functional; settings: read-out: IC50_Mean
T3 sequence (P24666 whole entry): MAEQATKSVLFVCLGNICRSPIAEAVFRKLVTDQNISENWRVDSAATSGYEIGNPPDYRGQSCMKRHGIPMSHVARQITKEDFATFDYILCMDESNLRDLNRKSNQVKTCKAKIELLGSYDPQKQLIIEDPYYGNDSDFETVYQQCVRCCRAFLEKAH

[24] = molecular target: T3, Low molecular weight phosphotyrosine protein phosphatase; type: functional; settings: read-out: IC50_Mean; remark: listed apart in the source
[25] = molecular target: T4, Tyrosine-protein phosphatase non-receptor type 22 (Homo sapiens, UniProt Q9Y2R2); test: PTPN22 enzyme inhibitors – biochemical, fluorescence, LYP catalytic domain, selectivity assay for LMPTP inhibitor project, dose response (AID 652006); type: functional; settings: read-out: IC50_Mean
T4 sequence (Q9Y2R2 whole entry): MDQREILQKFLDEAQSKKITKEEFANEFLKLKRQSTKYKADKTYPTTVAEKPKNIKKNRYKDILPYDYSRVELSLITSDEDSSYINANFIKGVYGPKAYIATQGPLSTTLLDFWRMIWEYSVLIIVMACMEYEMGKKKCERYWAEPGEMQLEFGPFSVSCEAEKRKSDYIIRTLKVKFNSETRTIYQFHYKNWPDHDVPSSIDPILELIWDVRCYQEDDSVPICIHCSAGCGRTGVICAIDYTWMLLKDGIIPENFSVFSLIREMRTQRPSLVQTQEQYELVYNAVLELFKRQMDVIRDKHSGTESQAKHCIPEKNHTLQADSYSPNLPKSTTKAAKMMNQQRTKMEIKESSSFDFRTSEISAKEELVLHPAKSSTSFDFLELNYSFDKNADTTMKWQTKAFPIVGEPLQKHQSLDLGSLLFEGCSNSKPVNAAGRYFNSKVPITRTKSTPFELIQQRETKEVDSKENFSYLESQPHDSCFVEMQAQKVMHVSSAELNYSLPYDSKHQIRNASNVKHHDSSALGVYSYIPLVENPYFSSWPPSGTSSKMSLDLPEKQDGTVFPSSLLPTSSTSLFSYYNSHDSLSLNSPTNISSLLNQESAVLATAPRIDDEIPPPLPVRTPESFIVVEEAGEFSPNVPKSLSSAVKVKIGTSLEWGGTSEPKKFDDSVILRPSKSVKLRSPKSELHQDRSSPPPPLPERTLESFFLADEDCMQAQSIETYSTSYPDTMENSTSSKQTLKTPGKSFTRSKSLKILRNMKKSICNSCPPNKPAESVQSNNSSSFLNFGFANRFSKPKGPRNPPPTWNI

[26] = A cytotoxicity screen of small molecule inhibitors of the PhoP region in Salmonella typhi identified in the primary screen. [Related pubchem assays: 1850, 1864, 1985 ]; type: functional
[27] = molecular target: Heat shock protein HSP 90-alpha (Homo sapiens, UniProt P07900); type: functional, organism-based
H9c2 = test: cells; type: functional, cell-based; settings: Rattus norvegicus, H9c2, Myocardium;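 also: confirmatory concentration-response retest of ultra-high-throughput screening hits for modulation of myocardial damage; cell death induced by hydrogen peroxide oxidative stress; compound pretreatment for 60 min then peroxide exposure for 2 h; potency is for protecting the cells against peroxide damage rather than for killing them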
[28] = molecular target: Aryl hydrocarbon receptor (Homo sapiens, UniProt P35869); settings: Potency;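 also: confirmatory quantitative high-throughput screen measuring activation of the AhR signaling pathway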
Aryl hydrocarbon receptor, sequence (P35869 whole entry): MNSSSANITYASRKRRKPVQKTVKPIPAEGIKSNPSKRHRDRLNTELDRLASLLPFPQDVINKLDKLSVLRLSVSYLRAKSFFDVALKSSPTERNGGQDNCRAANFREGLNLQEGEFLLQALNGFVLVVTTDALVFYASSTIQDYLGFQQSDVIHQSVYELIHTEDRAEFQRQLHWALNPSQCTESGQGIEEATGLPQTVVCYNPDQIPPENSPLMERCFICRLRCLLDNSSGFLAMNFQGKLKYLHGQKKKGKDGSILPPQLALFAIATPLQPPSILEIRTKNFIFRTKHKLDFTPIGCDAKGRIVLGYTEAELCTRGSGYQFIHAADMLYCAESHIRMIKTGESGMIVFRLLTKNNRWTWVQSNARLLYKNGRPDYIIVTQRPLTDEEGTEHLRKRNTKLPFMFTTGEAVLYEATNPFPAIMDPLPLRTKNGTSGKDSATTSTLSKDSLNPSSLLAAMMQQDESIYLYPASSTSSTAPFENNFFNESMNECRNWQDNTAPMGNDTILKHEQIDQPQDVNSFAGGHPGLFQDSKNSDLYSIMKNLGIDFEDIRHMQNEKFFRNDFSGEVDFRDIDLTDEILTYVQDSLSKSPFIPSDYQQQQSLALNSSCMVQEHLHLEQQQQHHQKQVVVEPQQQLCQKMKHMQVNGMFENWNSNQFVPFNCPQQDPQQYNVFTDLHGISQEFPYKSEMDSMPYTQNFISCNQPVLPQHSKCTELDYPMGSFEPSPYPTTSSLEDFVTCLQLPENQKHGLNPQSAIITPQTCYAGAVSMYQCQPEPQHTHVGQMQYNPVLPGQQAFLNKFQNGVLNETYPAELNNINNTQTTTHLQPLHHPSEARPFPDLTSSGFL

Structure (SMILES): O=C(Nc1ccc(S(=O)(=O)N2CCOCC2)cc1)c1ccc([N+](=O)[O-])o1
- EC50 [1]: > 120 µM (not active)
- EC50 [2]: > 120 µM (not active)
- EC50 (H4): > 120 µM (not active)
- CC50 [3]: 4.04 µM (active)
- AC50 [4]: 3.43 µM (active)
- CC50 [5]: 3.98 µM (active)
- IC50 (cells): 6.7 µM (active)
- IC50 [6]: 10.8 µM (inactive)
- IC50 (Steroidogenic factor 1): 0.443 µM (active)
- IC50 [7]: 35.9 µM (inactive)

Structure (SMILES): O=c1c2ccccc2[nH]c(=S)n1CCN1CCCCC1
- IC50 [8]: 8.77 µM (active)
- IC50 [9]: 7.94 µM (active)

Structure (SMILES): COC(=O)c1ccc(Sc2ccc(Cl)cc2)c(N)c1
- IC50 [10]: < 0.368 µM (active)
- EC50 [11]: > 53 µM (inactive)
- IC50 [12]: > 20 µM (inactive)

Structure (SMILES): CCOC(=O)c1ccc(NC(=O)Nc2ccon2)cc1
- EC50 (BJ [13]): 0.401 µM (active)
- EC50 (BJ [14]): 20.1 µM (active)
- EC50 (BJ [15]): 0.469 µM (active)
- EC50 [16]: 0.429 µM (active)
- EC50 (BJ [17]): < 0.104 µM (active)
- EC50 [18]: 8.42 µM (active)
- IC50 [19]: 49.7 µM (inactive)

Structure (SMILES): Cc1cccc(C)c1OCc1cc(C(=O)N2CCC(c3ccncc3)CC2)no1
- EC50 [20]: > 112 µM (not active)
- EC50 [21]: > 112 µM (not active)
- IC50 [22]: 6.23 µM (active)

Structure (SMILES): COc1ccccc1CNc1nc(NCc2ccc(NC(C)=O)cc2)c2sccc2n1
- IC50 [23]: 5.86 µM (active)
- IC50 [24]: 17.7 µM (active)
- IC50 [25]: 50.4 µM (inactive)

Structure (SMILES): Cc1c(/N=C/c2cc(Br)cc(Br)c2O)cccc1C(=O)O
- EC50 [26]: > 50 µM (active)
- AC50 [27]: 3.56 µM (active)
- IC50 [8]: 3.44 µM (active)
- IC50 (H9c2): 20 µM (active)
- IC50 [9]: 2.67 µM (active)

Structure (SMILES): O=c1cc(-c2ccc(O)cc2)oc2cc(O)cc(O)c12 [APIGENIN]
- AC50 [28]: 35.5 µM (inconclusive) and 28.2 µM (inconclusive)
